# Results published in patent USRE46907E1, “Suppression of cancer growth and metastasis using nordihydroguaiaretic acid derivatives with metabolic modulators” (THE JOHNS HOPKINS UNIVERSITY, priority 2008, dated 2018).
# Peptide text beside a SMILES is read from it. * marks the point of attachment. Cbz = O=C(OCc1ccccc1)*; CH2F = FC*
# Tests used:
# 4T1 cells [1] = assay: TUNEL apoptosis assay in 4T1 cells; type: cell-based, mouse
# Description: (§1) Cell Culture Either cell line 4T1 or 67NR was a gift from Dr. Miller (20). The cells were cultured in RPMI1640 medium supplemented with glucose (14 mM), pyruvate (1 mM), penicillin (100 units/ml), streptomycin (100 μg/ml), and fetal bovine serum (10%), buffered with 25 mM HEPES (pH 7.4). LNCaP human prostate cancer cell line was purchased from American Type Culture Collection (Manassas, Va.). The cell line was cultured in RPMI1640 medium supplemented with glucose (14 mM), pyruvate (1 mM), penicillin (100 units/ml), streptomycin (100 μg/ml), and fetal bovine serum (10%). Drugs were dissolved in dimethyl sulfoxide (DMSO) at a suitable concentration so that the final concentration of DMSO in the medium was less than 0.1%.
# (§2) Apoptosis assay: Simple TLTNEL assay was conducted by using TUNEL apoptosis detection kit (Upstate, Temecula, Calif.) with some modification. For the evaluation of the effect of PKCδ wild type and dominant negative vectors on TUNEL-positive cell death, we first transfected 4T1 or 67NR cells with these vectors by effectene (Qiagen, Valencia, Calif.). Wild type PKCδ vector is constructed from wild type PKCδ gene and pEGFP (Promega, Madison, Wis.). Dominant negative PKCδ vector is constructed from PKCδ gene mutated at a 376th amino acid residue (threonine) and pEGFP (Promega, Madison, Wis.) This threonine residue is located in ATP-binding domain of protein kinase Cδ, and therefore essential for any kinase reaction of the protein so that this mutant protein supposedly function as dominant negative. As a control we used pEGFP-N3 vector was used. These vectors contain green fluorescent protein (GFP) gene to be used as a transfection marker. The vectors are kind gifts from Dr. Yuspa (National Institutes of Health, Bethesda, Md.) (88). Twenty four hours after transfection, the cells were treated with M4N, Rottlerin, or Ly294002. Then 24 hrs after this treatment with these reagents, the cells were fixed with 10% formaldehyde in phosphate buffered saline without calcium and magnesium (PBS (−)). The cells were then incubated with rabbit anti-GFP antibody (MBL International, Woburn, Mass.) followed by treatment with anti-rabbit IgG antibody conjugated with fluorescein (Promega, Madison, Wis.). TUNEL staining was conducted by using TUNEL apoptosis detection kit (Upstate, Temecula, Calif.) except for using Streptavidin-Alexa Fluor 568 (Molecular Probes, Eugene, Oreg.) instead of Avidine-Rhodamine contained in the kit. Cell death was evaluated by dividing the number of TUNEL-positive cells among the cells positive with anti-GFP staining by the number of these GFP-positive cells.
# 67NR cells [2] = assay: TUNEL apoptosis assay in 67NR cells; type: cell-based, mouse
# Description: as §1, §2
# caspase-9 = assay: Western blotting of caspase-9 cleavage in 67NR cells; type: cell-based, mouse; conditions: 5 hrs, Rottlerin 5 μM, M4N 80 μM
# Description: (§3) Western blotting: After cells had been grown in 25 mm^2 flasks and treated with reagents, the cells were washed with PBS (−) three times and suspended in RIP A buffer (150 mM NaCl, 50 mM Tris-HCl (pH 8,0), 0.1% SDS, 1% NP40, and 0.5% deoxycholate) supplemented with protease inhibitor cocktail (Calbiochem, San Diego, Calif.). The sample volumes were adjusted by the total protein amount. Protein assay was performed by Bio-Rad Protein Assay (Bio-Rad Laboratories, Inc. Hercules, Calif.). The samples were resolved by the standard SDS-polyacrylamide gel electrophoresis and transferred to nitrocellulose membrane (Amersham Biosciences, Bjorkgatan, Sweden). The membranes were blocked with skim milk, and incubated with primary antibodies at 4° C. overnight and then with secondary antibody conjugated with horse radish peroxidase at room temperature for 2 hrs. The signals were detected by western blot chemiluminescence reagent plus (New England Nuclear Life Science Products, Boston, Mass.).
# PKCδ [3] = assay: Western blotting of total PKCδ and phosphor-PKCδ (Thr505) in 4T1 cells; type: cell-based, mouse; conditions: 4T1, 5 hrs; M4N 80 μM, Ro 5 μM, Ly 20 μM, Des 150 μM
# Description: as §3, with “The” for “Western blotting: After cells had been grown in 25 mm^2 flasks and treated with reagents, the cells were washed with PBS (−) three times and suspended in RIP A buffer (150 mM NaCl, 50 mM Tris-HCl (pH 8,0), 0.1% SDS, 1% NP40, and 0.5% deoxycholate) supplemented with protease inhibitor cocktail (Calbiochem, San Diego, Calif.). The”
# PKCδ [4] = assay: Western blotting of total PKCδ and phosphor-PKCδ (Thr505) in 67NR cells; type: cell-based, mouse; conditions: 5 hrs, M4N 80 μM, Ro 5 μM, Ly 20 μM, Des 150 μM
# Description: as §3, with “The” for “Western blotting: After cells had been grown in 25 mm^2 flasks and treated with reagents, the cells were washed with PBS (−) three times and suspended in RIP A buffer (150 mM NaCl, 50 mM Tris-HCl (pH 8,0), 0.1% SDS, 1% NP40, and 0.5% deoxycholate) supplemented with protease inhibitor cocktail (Calbiochem, San Diego, Calif.). The”
# PKCδ [5] = assay: Immunocytochemistry of PKCδ cellular localization in 4T1 cells; type: cell-based, mouse; conditions: 4T1, 5 hrs; for nuclear staining for phosphor-PKCδ (Thr505): without Desferoxamine co-treatment
# Description: (§4) Immunocytocheimstry: Cells were cultured on glass cover slips coated with poly-L-ornithine (Sigma, Saint Louis, Mo.). At 5 hrs after treatment with drugs, the cells were fixed with 10% formaldehyde in diluted in PBS (−) and washed with PBS (−) three times. After permeabilized by 0.2% Tryton X-100 and 1% goat serum diluted in PBS (−), the cells were blocked by PBS (−) containing 5% goat serum. The cells were then incubated with primary antibodies diluted in PBS (−) containing 0.5% bovine serum albumin (BSA), and with secondary antibodies, which is either anti-IgG conjugated with fluorescein (Vector Laboratories. Burlingame, Calif.), diluted in PBS (−) containing 0.5% BSA. The cells were observed through Zeiss fluorescent microscope (Carl Zeiss, Thornwood, N.Y.).
# 4T1 cells [6] = assay: 4T1 tumor-bearing Balb/c mice (life-span, tumor size); type: in vivo, mouse; conditions: 5×10^4 cells, M4N 1 mg/shot, Rottlerin 100 μg/shot, three days a week from day 7
# Description: (§5) Animals: Female Balb/e mice were obtained from Charles River Laboratories (Wilmington, Mass.). M4N and Rottlerin were dissolved into a solvent, CPE (25/30) solvent system supplied by Erimos Pharmaceutical, L.L.C. (Raleigh, N.C.) and injected into mice either intravenously or intraperitoneally, T-cell deficient male nude mice (nu/nu) were obtained from Charles River Laboratories (Wilmington, Mass.). M4N and Ly294002 were dissolved into a solvent, CPE (25/30) solvent system supplied by Erimos Pharmaceutical, L.L.C. (Raleigh, N.C.) and injected into mice intravenously.
# (§6) Tumor inoculation: Either 4T1 or 67NR cells were grown as described above. Cells growing subconfluently were collected and resuspended into the tissue culture medium minus fetal bovine serum and antibiotics, After counting the number of the cells, the cell concentration was adjusted. Twenty μl of the solution containing a selected number of cancer cells (either 5×10^3 or 5×10^4 cells) was injected into each fat pad of a pair of mammary glands located close to lower limbs. Tumor size was measured by weighing tumors extracted from mouse cadavers.
# 67NR cells [7] = assay: 67NR tumor-bearing Balb/c mice (life-span); type: in vivo, mouse; conditions: 5×10^4 cells, M4N 1 mg/shot, Rottlerin 100 μg/shot, three days a week from day 8
# Description: as §5, §6
# [8] = tested on: LNCaP human prostate cancer cells; type: cell-based; conditions: for effect on TUNEL-positive cell death induced by M4N: 24 hrs
# Description: as §1, §2
# [9] = tested on: LNCaP human prostate cancer cells; assay: MTT cell growth assay in LNCaP cells; type: cell-based; conditions: 24 hrs, M4N 80 μM, Ro 5 μM, Ly 20 μM
# Description: as §1
# MTT assay: Cells were incubated in PBS (−) supplemented with 5% fetal calf serum and 0.5 mg/ml MTT, 3-(4,5-Dimethylthiazol-2-yl)-2,5-diphenyltetrazolium bromide (Sigma, Saint Louis, Mo.) for 2 hrs. After the incubation, the cells were dissolved in dimethyl sulfoxide and the color of the solutions was measured by a spectrophotometer at wavelengths of 540 and 690 nm. The values correlated with viable cell numbers were obtained by subtracting the optical density at 690 nm from that, at 540 nm.
# PKCδ [10] = assay: Immunocytochemistry of PKCδ cellular localization in LNCaP cells; type: cell-based, human; conditions: 5 hrs
# Description: as §4
# [11] = tested on: mitochondrial membrane potential; assay: Mitochondrial membrane potential; type: cell-based
# [12] = tested on: PDK-1/Akt pathway-related proteins; assay: Western blotting of PDK-1/Akt pathway-related proteins in 4T1 cells; type: cell-based, mouse; conditions: 4T1, 5 hrs after treatment, M4N 80 μM, Desferoxamine 75 or 150 μM
# Description: as §3
# HIF [13] = assay: Western blotting of HIF in 4T1 cells; type: cell-based, mouse; conditions: 4T1, 5 hrs
# Description: as §3
# HIF [14] = assay: Western blotting of HIF in 67NR cells; type: cell-based, mouse; conditions: 5 hrs
# Description: as §3
# LNCaP tumors = assay: Nude mice orthotropically implanted with LNCaP tumors, about eight times tumor volume, treatment from day 3; type: in vivo, mouse
# Description: Surgical orthotropic implantation of LNCaP tumors: LNCaP cells were grown as described above. Cells growing subconfluently were collected and resuspended into the tissue culture medium without fetal bovine serum and antibiotics. After counting the number of the cells, the cell concentration was adjusted using the same medium. After 20 μl of the medium containing a selected number of cancer cells (about 5×10^7 cells) had been mixed together with the same volume of Matrigel (BD science, Bedford, Mass.), the combined solution was injected into the skin of nude mice. […] The tumor tissue extracted from the skin was excised into pieces of about 2 mm diameter. After nude mice were anesthetized by 2,2,2-Tribromoethanol (Aldrich Chemical Co. Inc., Milwaukee, Wis.), a small incision was made at the abdomen of each mouse and a tumor tissue piece was implanted in the neighbor of the prostate of each mouse. Eight days after the operation, the injection of drugs was initiated, and the drugs were injected intravenously every day for the indicated periods
# As in the previous experiment (FIGS. 9 to 13), in this study we administered M4N, Ly, Ro, Etoposide, or Rapamycin to mice intravenously using CPE (25/30) solvent system (87). […] However, in this experiment we implanted about eight times the volume of tumors as in the previous experiments to detect the difference of efficacy of various combination treatments much faster. We started to treat the mice with combination treatments three days after the implantation instead of eight days, considering that the tumor volume is already large at the time of implantation in this experiment. This allows less time for possible metastasis to the transplanted tumors in this experiment than in the previous one.
# [15] = 4T1, 24 hrs, with M4N 80 μM, Rottlerin 5 μM, Desferoxamine 150 μM
# [16] = 26 hrs, with M4N 80 μM, Rottlerin 5 μM, Desferoxamine 150 μM
smiles,measurement,setting,value
CC(=O)c1c(O)c(C)c(O)c(Cc2c(O)c3c(c(C(=O)/C=C/c4ccccc4)c2O)OC(C)(C)C=C3)c1O [Rottlerin],TUNEL-positive cell death,"4T1 cells [1]; 4T1, 24 hrs, M4N 80 μM, Rottlerin 5 μM, Ly294002 20 μM",Neither Ro nor Ly alone induced TUNEL-positive cell death
same,TUNEL-positive cell death with M4N in cells transfected with control vectors,"4T1 cells [1]; 4T1, 24 hrs, control vector",induced cell death synergistically with M4N
same,effect on cell death induced by M4N,4T1 cells [1]; [15],greatly enhanced cell death induced by M4N
same,TUNEL-positive cell death with M4N in cells transfected with control vectors,"67NR cells [2]; 24 hrs, control vector",induced cell death synergistically with M4N
same,TUNEL-positive cell death,"67NR cells [2]; 26 hrs, M4N 80 μM, Rottlerin 5 μM, Ly294002 20 μM",Neither Ro nor Ly alone induced TUNEL-positive cell death
same,effect on cell death induced by M4N,67NR cells [2]; [16],enhanced to some extent cell death induced by M4N
same,caspase-9 activation (cleavage),caspase-9,a small amount of caspase-9 is activated
same,amount of phosphorylated PKCδ at Thr505,PKCδ [3],induced phosphorylation
same,amount of phosphorylated PKCδ at Thr505,PKCδ [4],induced phosphorylation
same,cellular distribution / nuclear staining of total PKCδ,PKCδ [5],did not change much
same,nuclear staining for phosphor-PKCδ (Thr505),PKCδ [5],augmented staining
same,life-span of 4T1-bearing mice,4T1 cells [6],didn't extend the life-span
same,life-span of 67NR-bearing mice,67NR cells [7],didn't have much effect on the life-span
same,TUNEL-positive cell death,"[8]; 28 hrs, M4N 80 μM, Ro 5 μM, Ly 20 μM",has no effect
same,effect on cell death induced by M4N,"[8]; 28 hrs, with M4N 80 μM",synergistically augmented cell death induced by M4N
same,cell death with M4N over a broad range of concentrations,[8]; different concentrations of drugs,induced cell death synergistically
same,cytotoxicity alone,[8]; tissue culture,non-cytotoxic
same,cell growth (MTT),[9],suppressed cell growth to some extent
same,expression and nuclear level of total PKCδ,PKCδ [10],"Neither M4N, Ro, nor Ly treatment caused any remarkable change"
same,nuclear expression of phosphor-PKCδ (Thr507),PKCδ [10],augmented
same,depolarization of mitochondrial membrane potential,[11],depolarized mitochondrial membrane potential
"COC(=O)C[C@H](NC(=O)[C@H](C)NC(=O)[C@@H](NC(=O)OCc1ccccc1)C(C)C)C(=O)CF [zVAD, zVAD-fmk] (Cbz-Val-Ala-Asp(OMe)-CH2F)",effect of pan-caspase inhibitor on drug-induced TUNEL-positive cell death,"4T1 cells [1]; 4T1, zVAD 50 μM added 30 minutes before other drugs",didn't affect TUNEL-positive cell death
same,effect of pan-caspase inhibitor on drug-induced TUNEL-positive cell death,"67NR cells [2]; zVAD 50 μM, 42 hrs",didn't affect TUNEL-positive cell death
O=c1c(-c2ccc(O)cc2)coc2cc(O)cc(O)c12 [Genistein],effect on TUNEL-positive cell death induced by M4N with either Ro or Ly,"4T1 cells [1]; 4T1, Genistein 50 μM, 28 hrs",significantly suppressed the cell death
"O=C([O-])C(Cl)Cl.[Na+] [Dichloroacetate, Sodium Dichloroacetate]",effect on TUNEL-positive cell death induced by M4N,[8],synergistically augmented TUNEL-positive cell death induced by M4N
"CC(=O)N(O)CCCCCNC(=O)CCC(=O)N(O)CCCCCNC(=O)CCC(=O)N(O)CCCCCN.CS(=O)(=O)O [Desferoxamine, Desferoxamine mesylate]",effect on cell death induced by M4N,4T1 cells [1]; [15],generally augmented cell death even more
same,effect on cell death induced by M4N,"4T1 cells [1]; 4T1, 48 hr, Desferoxamine 300 μM with M4N 80 μM",enhanced cell death induced by M4N
same,effect on cell death induced by M4N,67NR cells [2]; [16],generally augmented cell death even more
same,effect on cell death induced by M4N,"67NR cells [2]; 48 hr, Desferoxamine 300 μM with M4N 80 μM",enhanced cell death induced by M4N
same,"expression of phosphorylated PDK (Ser241), Akt (Ser473), PRAS40 (Thr246), Raf (Ser259), MEK (Ser217/221)",[12],not much effect
same,amount of phosphorylated PKCδ at Thr505,PKCδ [3],induced phosphorylation
same,amount of phosphorylated PKCδ at Thr505,PKCδ [4],induced phosphorylation
same,cellular distribution / nuclear staining of total PKCδ,PKCδ [5],did not modulate much nuclear staining
same,nuclear staining for phosphor-PKCδ (Thr505),PKCδ [5],only moderately increased nuclear staining
same,HIF stabilization,HIF [13],induced HIF stabilization
same,HIF stabilization,HIF [14],induced HIF stabilization
COc1cc([C@@H]2c3cc4c(cc3[C@@H](O[C@@H]3O[C@@H]5CO[C@@H](C)O[C@H]5[C@H](O)[C@H]3O)[C@H]3COC(=O)[C@H]23)OCO4)cc(OC)c1O [Etoposide],effect on TUNEL-positive cell death induced by M4N,[8],synergistically augmented TUNEL-positive cell death induced by M4N
same,mice with lung metastasis lesions,LNCaP tumors; combination groups at 80 days after tumor implantation,3 out of 5
same,time after implantation by which all mice died,"LNCaP tumors; mouse, in vivo",≤ 24 days
